The results in this text go back to patent US10421761B2, “Compounds for kinase modulation, and indications therefor” (Plexxikon Inc., priority 2013, dated 2019).

“Also recorded” adds a separate entry of the source. Like-named read-outs stand apart in the source and are kept apart here.

Assay [1] has as its system IPC-298 (NRAS Q61L) cell line. The experiment in a line: IPC-298 P-ERK cell activation assay (AlphaScreen). Type of assay: cell-based, human. The following applies: for EC50: Homo sapiens, P-ERK cell activation, IPC-298, read-out: Cell activity (EC50 μM) IPC-298_P-ERK. The protocol:
(§1) B9 is a squamous cell carcinoma cell line expressing activated HRAS that was isolated from a DMBA/TPA-induced mouse model of skin carcinogenesis (Stoler, et al. The Journal of Cell Biology, 1993, 122(5), 1103-17). IPC-298 is a human melanoma cell line that expresses activated NRAS (Aubert, et al. International Journal of Cancer, 1993, 54(5), 784-92). To determine whether compounds induce phosphorylated ERK and MEK, cells are plated in a 96-well dish and treated with an 8-point titration of compound for one hour at 37° C. The media is then removed and the cells are incubated with lysis buffer containing protease and phosphatase inhibitors. Phosphorylated ERK and MEK in the resulting lysates is detected using AlphaScreen™ technology. To detect phosphorylated ERK, cell lysates are incubated with streptavidin-coated donor beads, anti-mouse IgG acceptor beads, a biotinylated anti-ERK1/2 rabbit antibody, and a mouse antibody that recognizes ERK1/2 only when it is phosphorylated on Thr202 and Tyr204. The biotinylated ERK1/2 antibody will bind to both the streptavidin-coated donor beads and to ERK1/2 (regardless of its phosphorylation state), and the phospho-ERK1/2 antibody will bind to the acceptor beads and to ERK1/2 that is phosphorylated at Thr202/Tyr204. Excitation of the beads with laser light at 680 nm produces singlet oxygen, which is rapidly quenched unless the beads are in close proximity. When ERK is phosphorylated, both antibodies can bind the same protein, bringing the donor and acceptor beads into close proximity, producing a signal that can be measured at 580 nm. MEK phosphorylation is detected using a similar approach, only with antibodies directed against total MEK1/2 and MEK1/2 that is phosphorylated at Ser217 and Ser221.
(§2) Phospho-ERK AlphaScreen® assay. To determine the effects of compound treatment upon phosphorylation of ERK1/2, cells were plated in a 96-well dish and treated with an 8-point titration of compound for one hour at 37° C. before lysis. To detect pERK, cell lysates were incubated with streptavidin-coated AlphaScreen® donor beads, anti-mouse IgG AlphaScreen® acceptor beads, a biotinylated anti-ERK1/2 rabbit antibody, and a mouse antibody that recognizes ERK1/2 only when it is phosphorylated on Thr202 and Tyr204. The biotinylated ERK1/2 antibody binds to both the streptavidin-coated AlphaScreen® donor beads and to ERK1/2 (regardless of its phosphorylation state), and the phospho-ERK1/2 antibody binds to the acceptor beads and to ERK1/2 that is phosphorylated at Thr202/Tyr204. An increase in ERK1/2 phosphorylation at Thr202/Tyr204 brings the donor and acceptor AlphaScreen® beads into close proximity, generating a signal that can be quantified on an EnVision reader (Perkin Elmer).
(In general: Bead proximity is the source of the signal in Alpha formats.)

A further assay concerns the target T1, BRAF V600E (Homo sapiens, UniProt P15056, V600E).
T1 construct: purchased Upstate Biotechnology
The experiment in a line: BRAF V600E biochemical kinase activity assay (AlphaScreen, biotin-MEK1 substrate). The conditions noted are these: BRAF V600E biochemical inhibitory activity. The protocol:
Compounds to be tested are diluted in dimethyl sulfoxide to a concentration of 0.1 mM. These are serially diluted 15 μL into 30 μL of dimethyl sulfoxide seven times in 96 well plates for a total of 8 dilution points, and for each dilution point 1 μL is added to a well of an assay plate. […] The reaction is started with addition of 10 μL of 200 μM ATP (i.e. final 100 μM ATP). After incubation of the kinase reaction for 45 minutes at room temperature, 5 μL/well of Stop Solution is added (25 mM Hepes pH 7.5, 100 mM EDTA, 0.01% BSA with donor beads (Streptavidin coated beads, Perkin Elmer), acceptor beads (Protein A coated, Perkin Elmer), and anti-phosphor MEK1/2 antibody (CellSignal), each at final concentration 10 μg/mL). The plates are incubated for 3 hours at room temperature and read on Envision reader (Perkin Elmer). Phosphorylation of Mek1 results in binding of the anti-phosphor-MEK1/2antibody and association of the donor and acceptor beads such that signal correlates with kinase activity. The signal versus compound concentration is used to determine the IC50.
The in vitro RAF kinase activities were determined by measuring phosphorylation of a biotinylated substrate peptide as described previously (Tsai, J. et al. Proc Natl Acad Sci USA 105, 3041-3046 (2008)). Compounds of formula (I), e.g., compound A, was also tested against a panel of 287 kinases at concentrations of 1 μM in duplicate. Kinases inhibited by over 50% were followed up by IC50 determination. The 287 kinases represent all major branches of the kinome phylogenetic tree. The inhibition screen of 287 kinases was carried out under contract as complementary panels at Invitrogen (Life Technologies, Wis., USA) SelectScreen™ profiling service, DiscoverX (CA, USA) KINOMEScan™ service, and Reaction Biology Corporation (PA, USA) Kinase HotSpot℠ service.

The subject of assay [2] is A375 (BRAF V600E) cell line. The experiment in a line: A375 P-ERK inhibition assay (AlphaScreen). Type of assay: cell-based, human. The following applies: for IC50: Homo sapiens, A-375, A375_P-ERK. The method, then:
as §2

Another assay has as its system B9 (HRAS Q61L) cell line. The experiment in a line: B9 P-ERK cell activation assay (AlphaScreen). Type of assay: cell-based, mouse. The conditions noted are these: for EC50: Mus musculus, P-ERK cell activation, B9, numeric bounds, read-out: Cell activity (EC50 μM) B9_pERK. The protocol: as §1, §2

T1 sequence (P15056 whole entry V600E): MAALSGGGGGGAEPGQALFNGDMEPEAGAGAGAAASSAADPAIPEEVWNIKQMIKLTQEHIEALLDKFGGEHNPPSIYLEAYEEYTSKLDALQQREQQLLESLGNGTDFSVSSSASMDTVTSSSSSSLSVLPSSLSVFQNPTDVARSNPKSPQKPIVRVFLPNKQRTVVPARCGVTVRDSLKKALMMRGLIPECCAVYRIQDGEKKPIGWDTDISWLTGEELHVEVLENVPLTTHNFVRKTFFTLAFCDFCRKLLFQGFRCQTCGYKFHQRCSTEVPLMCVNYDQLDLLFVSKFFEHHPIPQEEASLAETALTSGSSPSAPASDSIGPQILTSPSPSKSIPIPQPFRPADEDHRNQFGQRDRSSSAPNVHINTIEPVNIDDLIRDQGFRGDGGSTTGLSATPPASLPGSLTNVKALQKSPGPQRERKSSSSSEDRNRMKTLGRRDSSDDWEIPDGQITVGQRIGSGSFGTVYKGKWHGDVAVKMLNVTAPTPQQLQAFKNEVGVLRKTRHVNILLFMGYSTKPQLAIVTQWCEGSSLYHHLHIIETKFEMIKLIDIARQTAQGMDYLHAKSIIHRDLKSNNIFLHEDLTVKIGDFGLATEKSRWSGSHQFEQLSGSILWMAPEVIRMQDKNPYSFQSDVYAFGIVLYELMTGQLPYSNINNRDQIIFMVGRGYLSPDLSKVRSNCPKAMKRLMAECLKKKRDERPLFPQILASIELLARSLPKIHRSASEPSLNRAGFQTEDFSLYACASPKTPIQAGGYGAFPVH

What is called EC50 is the concentration needed to bring the measured effect to its halfway point. The term IC50 denotes the midpoint of a concentration-inhibition curve. High values mean lower potency, low ones higher potency. As to `COC(=O)N[C@@H](C)CNc1nccc(-c2sc(-c3ccccc3)nc2-c2cccc(NS(=O)(=O)N3CC[C@@H](F)C3)c2F)n1` [P-2152, methyl N-[(1S)-2-[[4-[4-[2-fluoro-3-[[(3R)-3-fluoropyrrolidin-1-yl]sulfonylamino]phenyl]-2-phenyl-thiazol-5-yl]pyrimidin-2-yl]amino]-1-methyl-ethyl]carbamate], in assay [1] (class symbols), the EC50 fell in the range of 0.0001 to 1 µM. Also, the IC50 (against BRAF V600E; in assay [2]) was 0.0001 to 1 µM in each case.
As for `O=C(c1c(F)ccc(NS(=O)(=O)C2CCCC2)c1F)c1c[nH]c2ncncc12` [P-2028, N-[2,4-difluoro-3-(7H-pyrrolo[2,3-d]pyrimidine-5-carbonyl)phenyl]cyclopentanesulfonamide], the EC50 (in assay [1] (numeric bounds); with B9 (HRAS Q61L) cell line) was over 10 µM throughout. In assay [2], this molecule yielded an IC50 of over 10 µM.
For the molecule `O=C(c1cccc(NS(=O)(=O)N2CCCC2)c1F)c1c[nH]c2ncnc(NCCC(F)(F)F)c12` [P-2112, N-[2-fluoro-3-[4-(3,3,3-trifluoropropylamino)-7H-pyrrolo[2,3-d]pyrimidine-5-carbonyl]phenyl]pyrrolidine-1-sulfonamide], the EC50 in assay [1] (numeric bounds) is over 10 µM. Further, the IC50 (against BRAF V600E; in assay [2]) was 0.0001 to 1 µM in each case.
Turning to `CN(C)S(=O)(=O)Nc1ccc(F)c(C(=O)c2c[nH]c3ncnc(NCC4CC4)c23)c1F` [P-2048, 4-(cyclopropylmethylamino)-5-[3-(dimethylsulfamoylamino)-2,6-difluoro-benzoyl]-7H-pyrrolo[2,3-d]pyrimidine], the EC50 in assay [1] (numeric bounds) was over 10 µM. The IC50 (against BRAF V600E; in assay [2]) was 0.0001 to 1 µM throughout.
With `CN(C)S(=O)(=O)Nc1cc(Cl)cc(C(=O)c2c[nH]c3ncc(-c4cnc(C5CC5)nc4)cc23)c1F` [P-2175, 3-[5-chloro-3-(dimethylsulfamoylamino)-2-fluoro-benzoyl]-5-(2-cyclopropylpyrimidin-5-yl)-1H-pyrrolo[2,3-b]pyridine], the EC50 in assay [1] (numeric bounds) was over 10 µM. In addition, the IC50 (at BRAF V600E; in assay [2]) was 0.0001 to 1 µM in each case.
As to `CC1(C)OCC(CNc2ncnc3[nH]cc(C(=O)c4cccc(NS(=O)(=O)N5CCCC5)c4F)c23)O1` (stereo not drawn) [P-2095, N-[3-[4-[(2,2-dimethyl-1,3-dioxolan-4-yl)methylamino]-7H-pyrrolo[2,3-d]pyrimidine-5-carbonyl]-2-fluoro-phenyl]pyrrolidine-1-sulfonamide], the EC50 (in assay [1] (numeric bounds); in the assay with B9 (HRAS Q61L) cell line) was over 10 µM in each case. For the same molecule, the IC50 in assay [2] is 0.0001 to 1 µM.
For the molecule `CCCC(C)S(=O)(=O)Nc1ccc(F)c(C(=O)c2c[nH]c3ncnc(NCC4CC4)c23)c1F` (stereo not drawn) [P-2051, N-[3-[4-(cyclopropylmethylamino)-7H-pyrrolo[2,3-d]pyrimidine-5-carbonyl]-2,4-difluoro-phenyl]pentane-2-sulfonamide], the IC50 (against BRAF V600E; in assay [2]) was 0.0001 to 1 µM each time.
For `CC(C)S(=O)(=O)Nc1ccc(F)c(C(=O)c2c[nH]c3ncnc(NCC4CC4)c23)c1F` [P-2047, N-[3-[4-(cyclopropylmethylamino)-7H-pyrrolo[2,3-d]pyrimidine-5-carbonyl]-2,4-difluoro-phenyl]propane-2-sulfonamide], the IC50 (against BRAF V600E; in assay [2]) was 0.0001 to 1 µM throughout.
Take `Cc1nc2c(-c3sc(C(C)(C)C)nc3-c3cccc(NS(=O)(=O)N4CCCC4)c3F)ccnc2[nH]1` [P-2126, N-[3-[2-tert-butyl-5-(2-methyl-3H-imidazo[4,5-b]pyridin-7-yl)thiazol-4-yl]-2-fluoro-phenyl]pyrrolidine-1-sulfonamide]: the IC50 (against BRAF V600E; in assay [2]) was 0.0001 to 1 µM in each case. The EC50 with B9 (HRAS Q61L) cell line is over 10 µM.
For `CCN(C)S(=O)(=O)Nc1cccc(-c2nc(C(C)(C)C)sc2-c2ccnc(N)n2)c1F` [P-0352, 5-(2-aminopyrimidin-4-yl)-2-tert-butyl-4-[3-[[ethyl(methyl)sulfamoyl]amino]-2-fluoro-phenyl]thiazole], the pERK activation result in assay [1] (RAS mutant cell line IPC-298, one hour treatment) is recorded as “significantly reduced pERK activation; also recorded: markedly reduced pERK activation”; in the assay with B9 (HRAS Q61L) cell line (RAS mutant cell line B9, one hour treatment), “significantly reduced pERK activation; also recorded: markedly reduced pERK activation”. For the same molecule, in assay [2] (BRAF V600E cell line A375), the pERK inhibition entry is given as “preserving the potent inhibitory activity; also recorded: moderate decrease in pERK IC50”.
For the molecule `O=C(c1cccc(NS(=O)(=O)N2CCCC2)c1F)c1c[nH]c2ncnc(NCC(F)(F)F)c12` [P-2077, N-[2-fluoro-3-[4-(2,2,2-trifluoroethylamino)-7H-pyrrolo[2,3-d]pyrimidine-5-carbonyl]phenyl]pyrrolidine-1-sulfonamide], the EC50 in assay [1] (numeric bounds) is over 10 µM. Further, the IC50 (at BRAF V600E; in assay [2]) was 0.0001 to 1 µM throughout.
`COC(=O)N[C@@H](C)CNc1nccc(-c2nn(C(C)C)cc2-c2cc(Cl)cc(NS(=O)(=O)N3CCCC3)c2F)n1` [P-2160, methyl N-[(1S)-2-[[4-[4-[5-chloro-2-fluoro-3-(pyrrolidin-1-ylsulfonylamino)phenyl]-1-isopropyl-pyrazol-3-yl]pyrimidin-2-yl]amino]-1-methyl-ethyl]carbamate]: the EC50 in assay [1] (class symbols) lay in the range of 0.0001 to 1 µM. The IC50 (against BRAF V600E; in assay [2]) was 0.0001 to 1 µM each time.
Regarding `CC(C)S(=O)(=O)Nc1ccc(F)c(C(=O)c2c[nH]c3nccc(Cl)c23)c1F` [P-2013, N-[3-(4-chloro-1H-pyrrolo[2,3-b]pyridine-3-carbonyl)-2,4-difluoro-phenyl]propane-2-sulfonamide], the IC50 (on BRAF V600E; in assay [2]) was 0.0001 to 1 µM in each case.
With `CCN(C)S(=O)(=O)Nc1cc(Cl)cc(-c2cn(C(C)C)nc2-c2ccnc(NC[C@H](C)NC(=O)OC)n2)c1F` [P-2164, methyl N-[(1S)-2-[[4-[4-[5-chloro-3-[[ethyl(methyl)sulfamoyl]amino]-2-fluoro-phenyl]-1-isopropyl-pyrazol-3-yl]pyrimidin-2-yl]amino]-1-methyl-ethyl]carbamate], in assay [1] (numeric bounds), the EC50 is over 10 µM. Besides, the IC50 (at BRAF V600E; in assay [2]) was 0.0001 to 1 µM throughout.
For the molecule `O=C(c1c(F)ccc(NS(=O)(=O)N2CCCC2)c1F)c1c[nH]c2ncncc12` [P-2029, N-[2,4-difluoro-3-(7H-pyrrolo[2,3-d]pyrimidine-5-carbonyl)phenyl]pyrrolidine-1-sulfonamide], the EC50 (in assay [1] (numeric bounds); in the assay with B9 (HRAS Q61L) cell line) was over 10 µM in each case. The IC50 in assay [2] fell in the range of 0.0001 to 1 µM.
